In patent US20230152316A1, “SARS-COV2 SPIKE PROTEIN BINDING PEPTIDES” (priority 2020, published 2023):

Target: SARS-CoV-2-RBD (insect-derived) (Severe acute respiratory syndrome coronavirus 2, UniProt P0DTC2, F486P)

TFLDKFNHEAED [SEQ ID NO: 15]
binding to SARS-CoV-2-RBD: did not bind
